Reference: PubChem BioAssay AID220 (DTP/NCI, 2004)
Where “and” joins values, the source holds several entries; their conditions need not be identical. Equal values may be shown once. Results filed as inconclusive are left out.

Test system: CD8F1 mice, subcutaneous mammary adenocarcinoma, T/C%
Test: NCI In Vivo Anticancer Drug Screen. Data for tumor model Mammary Adenocarcinoma CD8F1 (subcutaneous) in CD8F1
Settings: higher = larger tumour
Protocol: The antitumor activity of compounds was measured in mice bearing transplantable tumors. Survival or tumor size were measured and the results are expressed as the measurement made in the treated group (T) divided by the measurement made in the vehicle treated control group (C). The tumor model used in this assay is Mammary Adenocarcinoma CD8F1 (subcutaneous) in CD8F1

[1] = endpoint: median tumor weight (est.), dose: 25.0 mg/kg/injection, schedule: Q07DX005 (ip), vehicle: saline with Tween-80
[2] = endpoint: median tumor weight (est.), dose: 100.0 mg/kg/injection, schedule: Q07DX005 (ip), vehicle: saline with Tween-80
[3] = endpoint: median tumor weight (est.), dose: 25.0 mg/kg/injection, schedule: Q07DX005 (ip), vehicle: Klucel (hydroxypropylcellulose) (HPC)
[4] = endpoint: median tumor weight (est.), dose: 100.0 mg/kg/injection, schedule: Q07DX005 (ip), vehicle: Klucel (hydroxypropylcellulose) (HPC)
[5] = endpoint: median tumor weight (est.), dose: 200.0 mg/kg/injection, schedule: Q07DX005 (ip), vehicle: Klucel (hydroxypropylcellulose) (HPC)
[6] = endpoint: median tumor weight (est.), dose: 12.5 mg/kg/injection, schedule: Q07DX005 (ip), vehicle: Klucel (hydroxypropylcellulose) (HPC)
[7] = endpoint: median tumor weight (est.), dose: 50.0 mg/kg/injection, schedule: Q07DX005 (ip), vehicle: Klucel (hydroxypropylcellulose) (HPC)

CS(=O)(=O)c1ncc(Br)cn1
T/C (endpoint: median tumor weight (est.), dose: 6.25 mg/kg/injection, schedule: Q07DX005 (ip), vehicle: saline with Tween-80): 242 % of control | T/C (endpoint: median tumor weight (est.), dose: 12.5 mg/kg/injection, schedule: Q07DX005 (ip), vehicle: saline with Tween-80): 405 % of control | T/C [1]: 222 % of control | T/C (endpoint: median tumor weight (est.), dose: 50.0 mg/kg/injection, schedule: Q07DX005 (ip), vehicle: saline with Tween-80): 286 % of control | T/C [2]: 348 % of control | T/C (endpoint: median tumor weight (est.), dose: 200.0 mg/kg/injection, schedule: Q07DX005 (ip), vehicle: saline with Tween-80): 311 % of control

Oc1ccc(CCl)c2cccnc12
T/C (endpoint: median tumor weight change, dose: 62.5 mg/kg/injection, schedule: Q01DX001 (ip), vehicle: saline): 54 % of control | T/C (endpoint: median tumor weight change, dose: 125.0 mg/kg/injection, schedule: Q01DX001 (ip), vehicle: saline): 78 % of control

N#CC(OC1OC(COC2OC(CO)C(O)C(O)C2O)C(O)C(O)C1O)c1ccccc1 (stereo unspecified)
T/C (endpoint: median tumor weight (est.), dose: 50.0 mg/kg/injection, schedule: Q07DX005 (ip), vehicle: water): 71 % of control | T/C (endpoint: median tumor weight (est.), dose: 100.0 mg/kg/injection, schedule: Q07DX005 (ip), vehicle: water): 88 % of control | T/C (endpoint: median tumor weight (est.), dose: 200.0 mg/kg/injection, schedule: Q07DX005 (ip), vehicle: water): 112 % of control | T/C (endpoint: median tumor weight (est.), dose: 400.0 mg/kg/injection, schedule: Q07DX005 (ip), vehicle: water): 114 % of control | T/C (endpoint: median tumor weight (est.), dose: 800.0 mg/kg/injection, schedule: Q07DX005 (ip), vehicle: water): 82 % of control

CCOC(=O)Nc1cc2c(c(N)n1)N=C(CN(C)c1ccccc1)CN2
T/C (endpoint: median tumor weight (est.), dose: 3.12 mg/kg/injection, schedule: Q07DX005 (ip), vehicle: Klucel (hydroxypropylcellulose) (HPC)): 268 % of control | T/C (endpoint: median tumor weight (est.), dose: 6.25 mg/kg/injection, schedule: Q07DX005 (ip), vehicle: Klucel (hydroxypropylcellulose) (HPC)): 70 % of control | T/C [3]: 69 % of control and 79 % of control

CC(=O)OCC(=O)[C@@]12OC(C)(C)O[C@@H]1C[C@H]1[C@@H]3CC(C=O)=C4C=C(OCCCl)CC[C@]4(C)[C@@]3(F)[C@@H](O)C[C@@]12C
T/C [3]: 41 % of control and 62 % of control | T/C [4]: 1 % of control and 16 % of control | T/C [5]: 1 % of control and 7 % of control | T/C (endpoint: median tumor weight change, dose: 62.0 mg/kg/injection, schedule: Q01DX001 (ip), vehicle: Klucel (hydroxypropylcellulose) (HPC)): 32 % of control | T/C (endpoint: median tumor weight change, dose: 62.5 mg/kg/injection, schedule: Q01DX001 (ip), vehicle: Klucel (hydroxypropylcellulose) (HPC)): 66 % of control

BrC[P+](CBr)(CBr)CBr
T/C (endpoint: median tumor weight change, dose: 125.0 mg/kg/injection, schedule: Q01DX001 (ip), vehicle: saline with Tween-80): 124 % of control | T/C (endpoint: median tumor weight change, dose: 250.0 mg/kg/injection, schedule: Q01DX001 (ip), vehicle: saline with Tween-80): 152 % of control

CCCCCCCCCCCCSC1=C(Cl)C(=O)C(OC)=C(OC)C1=O
T/C [1]: 89 % of control | T/C [2]: 70 % of control

CCCCCc1cc(/C=C2/N=C(c3ccc[nH]3)C=C2OC)[nH]c1C
T/C (endpoint: median tumor weight (est.), dose: 0.5 mg/kg/injection, schedule: Q07DX005 (ip), vehicle: suspension in saline): 169 % of control | T/C (endpoint: median tumor weight (est.), dose: 1.0 mg/kg/injection, schedule: Q07DX005 (ip), vehicle: suspension in saline): 85 % of control | T/C (endpoint: median tumor weight (est.), dose: 4.0 mg/kg/injection, schedule: Q07DX005 (ip), vehicle: suspension in saline): 82 % of control | T/C (endpoint: median tumor weight (est.), dose: 8.0 mg/kg/injection, schedule: Q07DX005 (ip), vehicle: suspension in saline): 95 % of control

C1CN1c1nc(N2CC2)nc(N2CC2)n1
T/C (endpoint: median tumor weight (est.), dose: 0.12 mg/kg/injection, schedule: Q07DX005 (ip), vehicle: saline): 64 % of control and 86 % of control | T/C (endpoint: median tumor weight (est.), dose: 0.25 mg/kg/injection, schedule: Q07DX005 (ip), vehicle: saline): 23 % of control and 28 % of control | T/C (endpoint: median tumor weight (est.), dose: 0.5 mg/kg/injection, schedule: Q07DX005 (ip), vehicle: saline): 6 % of control and 10 % of control | T/C (endpoint: median tumor weight (est.), dose: 1.0 mg/kg/injection, schedule: Q07DX005 (ip), vehicle: saline): 1 % of control | T/C (endpoint: median tumor weight change, dose: 0.62 mg/kg/injection, schedule: Q01DX001 (ip), vehicle: suspension in saline): 18 % of control | T/C (endpoint: median tumor weight change, dose: 2.5 mg/kg/injection, schedule: Q01DX001 (ip), vehicle: suspension in saline): -17 % of control and -41 % of control

CC(=O)[O][Pb]([O]C(C)=O)([c]1ccccc1)[c]1ccccc1
T/C [6]: 124 % of control | T/C [3]: 80 % of control | T/C [7]: 65 % of control | T/C [4]: 86 % of control | T/C [5]: 75 % of control | T/C (endpoint: median tumor weight (est.), dose: 400.0 mg/kg/injection, schedule: Q07DX005 (ip), vehicle: Klucel (hydroxypropylcellulose) (HPC)): 29 % of control

Oc1c(Cl)cc(C(c2cc(Cl)c(O)c(Cl)c2)C(c2cc(Cl)c(O)c(Cl)c2)c2cc(Cl)c(O)c(Cl)c2)cc1Cl
T/C [6]: 540 % of control | T/C [3]: 341 % of control | T/C [7]: 294 % of control | T/C [4]: 84 % of control | T/C [5]: 192 % of control
